Laboratory results from US11718592B2, “Oxadiazole derivative” (Sumitomo Pharma Co., Ltd., priority 2020, dated 2023).
Marks after values point to notes of the source that are not given here.

test system: Slc: ddy male mice; experiment: not given; settings: mouse, in vivo, po, 25 mg/kg, 1 h

Row | SMILES | average of the five mice's walking time [s]
1 | CN1C(=O)CC[C@H]1c1nc(-c2ccc(F)cc2)no1 (single isomer, unassigned) [Example 31] | 180
2 | CN1C(=O)CCC1c1nc(-c2ccc(F)cc2)no1 (stereo not shown) [Example 25, 5-[3-(4-Fluorophenyl)-1,2,4-oxadiazol-5-yl]-1-methylpyrrolidin-2-one] | 180
3 | CN1C(=O)CCC1c1nc(-c2ccc(Cl)cc2)no1 (stereo not shown) [Example 29, 5-[3-(4-chlorophenyl)-1,2,4-oxadiazol-5-yl]-1-methylpyrrolidin-2-one] | 180

same assay, conditions: mouse, in vivo, po, 50 mg/kg, 1 h

Row | SMILES | average of the five mice's walking time [s]
4 | CN1C(=O)CC[C@H]1c1nc(-c2ccc(F)cc2)no1 (single isomer, unassigned) [Example 31] | 53.2
5 | CN1C(=O)CCC1c1nc(-c2ccc(F)cc2)no1 (single isomer, unassigned) [Example 32] | 180
6 | CN1C(=O)CCC1c1nc(-c2ccc(F)cc2)no1 (stereo not shown) [Example 25, 5-[3-(4-Fluorophenyl)-1,2,4-oxadiazol-5-yl]-1-methylpyrrolidin-2-one] | 144.8
7 | CN1C(=O)CCC1(C)c1nc(-c2ccc(F)cc2)no1 (stereo not shown) [Example 28, 5-[3-(4-fluorophenyl)-1,2,4-oxadiazol-5-yl]-1,5-dimethylpyrrolidin-2-one] | 180
8 | CN1C(=O)CCC1c1nc(-c2ccc(Cl)cc2)no1 (stereo not shown) [Example 29, 5-[3-(4-chlorophenyl)-1,2,4-oxadiazol-5-yl]-1-methylpyrrolidin-2-one] | 146.4
9 | CN1C(=O)CCC1c1nc(-c2ccc(Br)cc2)no1 (stereo not shown) [Example 30, 5-[3-(4-bromophenyl)-1,2,4-oxadiazol-5-yl]-1-methylpyrrolidin-2-one] | 180

same assay, conditions: mouse, in vivo, po, 100 mg/kg, 1 h

Row | average of the five mice's walking time [s] | SMILES
10 | 0 | CN1C(=O)CC[C@H]1c1nc(-c2ccc(F)cc2)no1 (single isomer, unassigned) [Example 31]
11 | 180 | CCC(CC)(C(N)=O)c1nc(-c2ccc(Cl)cc2)no1 [Example 11, 2-[3-(4-chlorophenyl)-1,2,4-oxadiazol-5-yl]-2-ethylbutanamide]
12 | 180 | CC(C)(C(N)=O)c1nnc(-c2ccc(Br)cc2)o1 [Example 16, 2-[5-(4-bromophenyl)-1,3,4-oxadiazol-2-yl]-2-methylpropanamide]

Row | SMILES | average of the five mice's walking time [s]
13 | CN1C(=O)CCC1c1nc(-c2ccc(F)cc2)no1 (single isomer, unassigned) [Example 32] | 65.3

test system: GABA(A) receptors; experiment: Evaluation of the potentiating effect on GABA(A) receptors (electrophysiology, GABA(A) receptor expressing cells); format: cell-based; settings: 2 μM GABA and test compound with 10 μM flumazenil
Protocol: Using GABA(A) receptor expressing cells prepared according to Guideline for Generation of Stable Cell Lines (website of Lonza Japan; Non-patent Literature 4), the present test is done for evaluating the potentiating effect of a drug on GABA(A) receptors based on the electric current raised by GABA. The GABA(A) receptor expressing cells were used in electrophysiological study, wherein the electric current was measured when 2 μM GABA solution and then a mixture of 2 μM GABA and the test compound were added to the cells. […] In addition, the electric current generated by a mixture of 2 μM GABA solution and the test compound with 10 μM flumazenil was measured, and the inhibition rate for the electric current by adding flumazenil was calculated compared to the electric current obtained in the absence of flumazenil.

Row | SMILES | Inhibition rate to the increased electric current by adding flumazenil [%]
14 | CN1C(=O)CC[C@H]1c1nc(-c2ccc(F)cc2)no1 (single isomer, unassigned) [Example 31] | <0
15 | CN1C(=O)CCC1c1nc(-c2ccc(F)cc2)no1 (single isomer, unassigned) [Example 32] | <0
16 | CN1C(=O)CCC1c1nc(-c2ccc(F)cc2)no1 (stereo not shown) [Example 25, 5-[3-(4-Fluorophenyl)-1,2,4-oxadiazol-5-yl]-1-methylpyrrolidin-2-one] | 12
17 | CN1C(=O)CCC1(C)c1nc(-c2ccc(F)cc2)no1 (stereo not shown) [Example 28, 5-[3-(4-fluorophenyl)-1,2,4-oxadiazol-5-yl]-1,5-dimethylpyrrolidin-2-one] | 24
18 | CN1C(=O)CCC1c1nc(-c2ccc(Cl)cc2)no1 (stereo not shown) [Example 29, 5-[3-(4-chlorophenyl)-1,2,4-oxadiazol-5-yl]-1-methylpyrrolidin-2-one] | 7

same assay, conditions: concentration giving 20% increase of the current generated by 2 μM GABA

Row | SMILES | The potentiating effect on GABA(A) receptors EC20 [µM]
19 | CN1C(=O)CC[C@H]1c1nc(-c2ccc(F)cc2)no1 (single isomer, unassigned) [Example 31] | 15
20 | CN1C(=O)CCC1c1nc(-c2ccc(F)cc2)no1 (single isomer, unassigned) [Example 32] | 3.6
21 | CCC(CC)(C(N)=O)c1nc(-c2ccc(Cl)cc2)no1 [Example 11, 2-[3-(4-chlorophenyl)-1,2,4-oxadiazol-5-yl]-2-ethylbutanamide] | 5.1
22 | CC(C)(C(N)=O)c1nnc(-c2ccc(Br)cc2)o1 [Example 16, 2-[5-(4-bromophenyl)-1,3,4-oxadiazol-2-yl]-2-methylpropanamide] | >300
23 | CN1C(=O)CCC1c1nc(-c2ccc(F)cc2)no1 (stereo not shown) [Example 25, 5-[3-(4-Fluorophenyl)-1,2,4-oxadiazol-5-yl]-1-methylpyrrolidin-2-one] | 16
24 | CN1C(=O)CCC1(C)c1nc(-c2ccc(F)cc2)no1 (stereo not shown) [Example 28, 5-[3-(4-fluorophenyl)-1,2,4-oxadiazol-5-yl]-1,5-dimethylpyrrolidin-2-one] | 9.3
25 | CN1C(=O)CCC1c1nc(-c2ccc(Cl)cc2)no1 (stereo not shown) [Example 29, 5-[3-(4-chlorophenyl)-1,2,4-oxadiazol-5-yl]-1-methylpyrrolidin-2-one] | 1.1

test system: ddY male mice; experiment: Test with model produced by subcutaneous injection of pentetrazol (minimum convulsion model, scPTZ); format: in vivo; settings: 25 mg/kg oral administration
Protocol: In order to evaluate an antiepileptic drug, in general, a model produced by subcutaneous injection of pentetrazol (minimum convulsion model, scPTZ) is used, which has high clinical predictability. […] In this test, an animal model which expresses generalized absence seizure or myoclonic seizure was used. Test compounds were orally administered to Sic: ddY male mice (purchased from Japan SLC, Inc., 5 mice in each group, body weight 20-30 g). After an hour, pentetrazol (85 mg/kg) was subcutaneously administered. […] To control mice, 0.5% methylcellulose solution was administered, and the same test was done. The results are represented as the number of mice with no convulsion, per 5 mice. The present test was deemed to succeed when 4 mice among 5 mice in the control group developed convulsions.

Row | SMILES | animals exhibiting anticonvulsant action (in words)
26 | CN1C(=O)CC[C@H]1c1nc(-c2ccc(F)cc2)no1 (single isomer, unassigned) [Example 31] | more than half of the animals
27 | CCC(CC)(C(N)=O)c1nc(-c2ccc(Cl)cc2)no1 [Example 11, 2-[3-(4-chlorophenyl)-1,2,4-oxadiazol-5-yl]-2-ethylbutanamide] | more than half of the animals
28 | CC(C)(C(N)=O)c1nnc(-c2ccc(Br)cc2)o1 [Example 16, 2-[5-(4-bromophenyl)-1,3,4-oxadiazol-2-yl]-2-methylpropanamide] | more than half of the animals
29 | CN1C(=O)CCC1c1nc(-c2ccc(F)cc2)no1 (stereo not shown) [Example 25, 5-[3-(4-Fluorophenyl)-1,2,4-oxadiazol-5-yl]-1-methylpyrrolidin-2-one] | more than half of the animals
30 | CN1C(=O)CCC1(C)c1nc(-c2ccc(F)cc2)no1 (stereo not shown) [Example 28, 5-[3-(4-fluorophenyl)-1,2,4-oxadiazol-5-yl]-1,5-dimethylpyrrolidin-2-one] | more than half of the animals
31 | CN1C(=O)CCC1c1nc(-c2ccc(Br)cc2)no1 (stereo not shown) [Example 30, 5-[3-(4-bromophenyl)-1,2,4-oxadiazol-5-yl]-1-methylpyrrolidin-2-one] | more than half of the animals

test system: BALB/c-Scn1a<+/−> mice; experiment: Anticonvulsant effect in mouse model of Dravet syndrome with febrile seizures; format: in vivo; settings: oral, at the dose for anticonvulsive effect; hyperthermia 50 minutes after dosing
Source text: This is a test for evaluating the anticonvulsant effect for febrile seizures of the test compounds in a mouse model of Dravet syndrome. In this test, BALB/c-Scn1a<+/−> mice were used (catalog number: RBRC06422; they are available from RIKEN BioResource Research Center via the National BioResource Project). The present mouse model having a mutation in a responsible gene for Dravet syndrome, Scn1A, presents with symptoms similar to febrile seizures caused by hyperthermia which is a symptom in a patient suffering from Dravet syndrome, and can be used as an animal model of spontaneous Dravet syndrome (for reference: the Japan Epilepsy Research Foundation, Annual Report 2015: 26: 69-76). To male mice model of Dravet syndrome (one group: 5-8 mice, body weight: 20-30 g) were orally administered the test compound. 50 minutes later, the mice were put in a chamber warmed with hot bath to evoke hyperthermia, and observed about the development of febrile seizures. Immediately after febrile seizure was developed, the rectal temperature was measured and used as the threshold body temperature for inducing febrile seizures.

Row | SMILES | Difference of the threshold temperature of convulsion from that of the control group [°C]
32 | CN1C(=O)CC[C@H]1c1nc(-c2ccc(F)cc2)no1 (single isomer, unassigned) [Example 31] | 0.3
33 | CN1C(=O)CCC1c1nc(-c2ccc(F)cc2)no1 (single isomer, unassigned) [Example 32] | 0.5
34 | CN1C(=O)CCC1c1nc(-c2ccc(F)cc2)no1 (stereo not shown) [Example 25, 5-[3-(4-Fluorophenyl)-1,2,4-oxadiazol-5-yl]-1-methylpyrrolidin-2-one] | 0.3
35 | CN1C(=O)CCC1c1nc(-c2ccc(Cl)cc2)no1 (stereo not shown) [Example 29, 5-[3-(4-chlorophenyl)-1,2,4-oxadiazol-5-yl]-1-methylpyrrolidin-2-one] | 0.7

same assay, conditions: oral; dose needed to raise the threshold body temperature for inducing febrile seizures significantly compared with the control group

Row | SMILES | Dose for anticonvulsive effect [mg/kg]
36 | CN1C(=O)CC[C@H]1c1nc(-c2ccc(F)cc2)no1 (single isomer, unassigned) [Example 31] | 12.5
37 | CN1C(=O)CCC1c1nc(-c2ccc(F)cc2)no1 (single isomer, unassigned) [Example 32] | 25
38 | CN1C(=O)CCC1c1nc(-c2ccc(F)cc2)no1 (stereo not shown) [Example 25, 5-[3-(4-Fluorophenyl)-1,2,4-oxadiazol-5-yl]-1-methylpyrrolidin-2-one] | 12.5
39 | CN1C(=O)CCC1c1nc(-c2ccc(Cl)cc2)no1 (stereo not shown) [Example 29, 5-[3-(4-chlorophenyl)-1,2,4-oxadiazol-5-yl]-1-methylpyrrolidin-2-one] | 25

test system: male Wister strain rats; experiment: Antidepressant effect in rat forced swimming test; format: in vivo; settings: oral
Source text: The present test can evaluate antidepressant effect of a drug. When a rat is thrown into a water bath from which the rat cannot escape to be made to swim, the rat takes on escape behavior in the beginning and then becomes immobile. Next day, when the rat is thrown into a water bath again, the immobility appears earlier than that of the first trial. The method can evaluate the antidepressant effect of a test compound by using the duration of the immobility time as an indicator of depressive behavior. A day before the test, male Wister strain rats (purchased from Charles River Laboratories Japan, body weight: 260-300 g) were made to swim in a water bath for 15 minutes. On the test day, the test compound was orally administered to the rats (10-12 rats in one group). An hour later, the rats were made to swim again for 5 minutes and each immobility time was measured. In the control group, 0.5% methylcellulose solution as the test compound was administered to the rats which were subjected to the same behavior test. The antidepressant effect was indicated by the average rate of deceasing the immobility time per that of the control group.

Row | SMILES | antidepressant effect / immobility time (in words)
40 | CN1C(=O)CCC1c1nc(-c2ccc(F)cc2)no1 (single isomer, unassigned) [Example 32] | significantly decreased the immobility time
41 | CN1C(=O)CCC1c1nc(-c2ccc(Cl)cc2)no1 (stereo not shown) [Example 29, 5-[3-(4-chlorophenyl)-1,2,4-oxadiazol-5-yl]-1-methylpyrrolidin-2-one] | significantly decreased the immobility time

same assay, conditions: oral 3 mg/kg; swim 5 minutes an hour later

Row | SMILES | average rate of deceasing the immobility time per that of the control group
42 | CN1C(=O)CCC1c1nc(-c2ccc(F)cc2)no1 (single isomer, unassigned) [Example 32] | 25.3*
43 | CN1C(=O)CCC1c1nc(-c2ccc(Cl)cc2)no1 (stereo not shown) [Example 29, 5-[3-(4-chlorophenyl)-1,2,4-oxadiazol-5-yl]-1-methylpyrrolidin-2-one] | 12.3

same assay, conditions: oral 10 mg/kg; swim 5 minutes an hour later

Row | SMILES | average rate of deceasing the immobility time per that of the control group
44 | CN1C(=O)CCC1c1nc(-c2ccc(F)cc2)no1 (single isomer, unassigned) [Example 32] | 31.6*
45 | CN1C(=O)CCC1c1nc(-c2ccc(Cl)cc2)no1 (stereo not shown) [Example 29, 5-[3-(4-chlorophenyl)-1,2,4-oxadiazol-5-yl]-1-methylpyrrolidin-2-one] | 29.4*

same assay, conditions: oral 30 mg/kg; swim 5 minutes an hour later

Row | SMILES | average rate of deceasing the immobility time per that of the control group
46 | CN1C(=O)CCC1c1nc(-c2ccc(F)cc2)no1 (single isomer, unassigned) [Example 32] | 58.9*
